2 molecules from US7915270B2, “Oxazole ketones as modulators of fatty acid amide hydrolase” (The Scripps Research Institute, priority 2006, dated 2011) can be followed below.

In assay [1] the target is T1, FAAH (Homo sapiens, UniProt O00519).
T1 sequence (O00519 1-579): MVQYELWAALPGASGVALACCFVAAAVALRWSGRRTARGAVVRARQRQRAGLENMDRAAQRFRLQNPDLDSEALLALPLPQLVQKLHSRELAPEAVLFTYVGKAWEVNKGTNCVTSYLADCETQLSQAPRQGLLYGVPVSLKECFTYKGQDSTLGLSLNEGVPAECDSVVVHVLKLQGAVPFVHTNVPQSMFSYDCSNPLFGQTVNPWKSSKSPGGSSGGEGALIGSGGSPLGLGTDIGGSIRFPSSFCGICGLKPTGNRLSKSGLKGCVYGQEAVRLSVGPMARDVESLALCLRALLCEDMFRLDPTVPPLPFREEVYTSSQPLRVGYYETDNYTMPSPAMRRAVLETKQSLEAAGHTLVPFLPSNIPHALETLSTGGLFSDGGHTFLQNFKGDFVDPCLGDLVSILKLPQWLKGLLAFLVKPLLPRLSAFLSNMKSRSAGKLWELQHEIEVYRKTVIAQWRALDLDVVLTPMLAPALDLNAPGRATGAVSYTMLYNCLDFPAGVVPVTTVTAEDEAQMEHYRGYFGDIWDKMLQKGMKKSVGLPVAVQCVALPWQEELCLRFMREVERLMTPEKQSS
Description: Assay Method 1B: FAAH assay, 3H-anandamide hydrolysis in cell homogenate (T84 or SK-N-MC cells transfected with human FAAH). Type of assay: biochemical. Also on record: expressed in transfected cells. To be noted: 3H-AEA 80 nM, rt 1 h, pH 9.

Assay [2] addresses T2, FAAH (Rattus norvegicus, UniProt P97612).
T2 sequence (P97612 1-579): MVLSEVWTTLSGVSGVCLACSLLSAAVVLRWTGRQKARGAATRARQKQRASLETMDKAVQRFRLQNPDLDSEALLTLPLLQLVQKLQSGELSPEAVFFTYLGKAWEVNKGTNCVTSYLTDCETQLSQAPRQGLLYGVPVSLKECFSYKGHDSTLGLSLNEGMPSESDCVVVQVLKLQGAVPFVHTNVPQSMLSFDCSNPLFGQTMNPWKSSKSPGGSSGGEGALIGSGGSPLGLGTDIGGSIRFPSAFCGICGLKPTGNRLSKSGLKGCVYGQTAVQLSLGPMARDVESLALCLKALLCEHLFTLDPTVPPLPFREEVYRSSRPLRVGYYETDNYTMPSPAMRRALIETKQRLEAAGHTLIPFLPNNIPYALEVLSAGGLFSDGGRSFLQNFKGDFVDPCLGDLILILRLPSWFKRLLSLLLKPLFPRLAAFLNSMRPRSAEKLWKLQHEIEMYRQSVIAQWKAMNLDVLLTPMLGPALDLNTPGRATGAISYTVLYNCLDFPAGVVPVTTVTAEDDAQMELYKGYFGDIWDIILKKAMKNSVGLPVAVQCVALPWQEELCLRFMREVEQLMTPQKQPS
The experiment in a line: Assay Method 1A: FAAH enzyme assay, 14C-oleamide hydrolysis, solubilized liver plasma membrane extract.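 Also: ki obtained by Dixon analysis, taking the x-intercept of inhibitor concentration versus reciprocal rate plots at fixed substrate level and correcting for substrate concentration relative to Km.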
Description: Linear least squares fits were used for all reaction progress curves and R^2 values were consistently >0.97. […] Ki values were determined by the Dixon Method (x-intercepts of weighted linear fits of [I] versus 1/rate plots at constant substrate concentration, which were converted to Ki values using the formula Ki=−xint/[1+[S]/Km]).

Each structure is given as a SMILES string. Like-named read-outs stand apart in the source and are kept apart here.

As to `O=C(O)c1cccc(-c2cnc(C(=O)CCCCCCc3ccccc3)o2)n1` [Example 37, 6-(2-(7-Phenylheptanoyl)oxazol-5-yl)picolinic acid], the IC50 at FAAH [1] turned out to be 0.4 nM. In addition, the Ki at FAAH [2] (read-out: Assay 1A Ki, liver plasma membrane extract containing FAAH, 14C-oleamide, pH 9.0, 20-23 °C, Dixon method) came out at 20 nM.

For the molecule `O=C(O)c1ccc(-c2cnc(C(=O)CCCCCCc3ccccc3)o2)nc1` [Example 38, 6-(2-(7-Phenylheptanoyl)oxazol-5-yl)nicotinic acid], the IC50 against FAAH [1] was 0.2 nM. At FAAH [2], this molecule yielded a Ki of 7 nM.
